Our source for the IC50 and melting point values is patent US6897317B2, “4-Phenyltetrahydrochinoline utilized as an inhibitor of the cholesterol ester transfer protein” (Bayer Aktiengesellschaft, priority 1997, dated 2005).

The first data set deals with T1, cholesterol ester transfer protein (CETP) (Homo sapiens, UniProt P11597).
T1 construct: CETP is obtained in partially purified form from human plasma by differential centrifugation and column chromatography; from tissue; host or cells: human plasma
T1 sequence (P11597 18-493): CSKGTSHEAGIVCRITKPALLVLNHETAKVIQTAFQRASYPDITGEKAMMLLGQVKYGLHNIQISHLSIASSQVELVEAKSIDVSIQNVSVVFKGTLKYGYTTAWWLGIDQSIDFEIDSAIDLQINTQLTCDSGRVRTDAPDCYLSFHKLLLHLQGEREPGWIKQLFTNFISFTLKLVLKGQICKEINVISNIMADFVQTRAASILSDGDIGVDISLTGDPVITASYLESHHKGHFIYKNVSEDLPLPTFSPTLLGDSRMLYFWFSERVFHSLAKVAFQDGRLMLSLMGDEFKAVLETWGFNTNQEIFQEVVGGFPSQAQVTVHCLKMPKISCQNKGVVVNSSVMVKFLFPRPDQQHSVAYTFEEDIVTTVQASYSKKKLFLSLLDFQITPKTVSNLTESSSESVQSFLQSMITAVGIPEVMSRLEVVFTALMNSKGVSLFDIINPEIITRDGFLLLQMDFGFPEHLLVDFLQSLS
The experiment in a line: CETP inhibition test (3H-cholesterol ester transfer from HDL to biotinylated LDL, SPA). It counts as biochemical. The following applies: CETP partially purified from human plasma; 37° C., 18 h; concentration at which transfer is reduced by half. As to the method:
Preparation of CETP • CETP is obtained in partially purified form from human plasma by differential centrifugation and column chromatography and used for the test. For this purpose, human plasma is adjusted to a density of 1.21 g per ml using NaBr and centrifuged at 50,000 rpm at 4° C. for 18 h. The bottom fraction (d>1.21 g/ml) is applied to a Sephadex®Phenyl-Sepharose 4B (Pharmacia) column, washed with 0.15 m NaCl/0.001 M TrisHCl pH 7.4 and subsequently eluted using dist. water. The CETP-active fractions are pooled, dialysed against 50 mM Na-acetate pH 4.5 and applied to a CM-Sepharose® (Pharmacia) column. Elution is subsequently carried out using a linear gradient (0-1 M NaCl). The pooled CETP fractions are dialysed against 10 mM Tris HCl pH 7.4 and subsequently purified further by chromatography over a Mono Q® column (Pharmacia).
Preparation of Radioactively Labelled HDL • 50 ml of fresh human EDTA plasma are adjusted to a density of 1.12 using NaBr and centrifuged at 4° C. in a Ty 65 rotor at 50,000 rpm for 18 h. […] CETP test • To assess the CETP activity, the transfer of ^3H-cholesterol ester from human HD-lipoproteins to biotinylated LD-lipoproteins is measured. • The reaction is terminated by addition of Streptavidin-SPA® beads (Amersham) and the transferred radioactivity is directly measured in a liquid scintillation counter. • In the assay mixture, […] (˜50,000 cpm) with 10 ml of Biotin-LDL (Amersham) in 50 mM Hepes/0.15 m NaCl/0.1% bovine serum albumin/0.05% NaN3 pH 7.4 are incubated with 10 ml of CETP (1 mg/ml) and 3 ml of a solution of the substance to be tested (dissolved in 10% DMSO/1% BSA) at 37° C. for 18 h. […] of the SPA streptavidin bead solution (TRKQ 7005) are subsequently added, the mixture is incubated with shaking for another 1 h and subsequently measured in a scintillation counter. • The controls used are corresponding incubations with 10 ml of buffer, 10 ml of CETP at 4° C. and 10 ml of CETP at 37° C. • The activity which is transferred in the control experiments with CETP at 37° C. is taken to be 100% transfer. […]
What is called IC50 is the midpoint of a concentration-inhibition curve. A higher IC50 goes with weaker potency in that assay. On to `CC1(C)Cc2nc(C3CCCC3)c([C@@H](F)c3ccc(C(F)(F)F)cc3)c(-c3cccc(F)c3)c2[C@@H](O)C1` [Example 61], for which half-maximal inhibition (IC50) was put at 23 nM. The compound `CC1(C)Cc2nc(C3CCCC3)c(C(F)c3ccc(C(F)(F)F)cc3)c(-c3ccc(F)cc3)c2C(C)(O)C1` (single isomer, unassigned) [Example 1, 2-Cyclopentyl-4-(4-fluorophenyl)-3-[fluoro-(4-trifluoromethyl-phenyl)-methyl]-5-methyl-7,7-dimethyl-5,6,7,8-tetrahydro-quinolin-5-ol] yielded an IC50 of 6 nM.

As for `Cc1ccc(-c2c([C@@H](F)c3ccc(C(F)(F)F)cc3)c(C3CCCC3)nc3c2[C@@H](O)CC(C)(C)C3)cc1` [Example 53], the IC50 turned out to be 10 nM.

System in another data set: not given
Test: not given
Conditions: not given
By melting point is commonly meant the temperature, or range, at which the solid turns liquid. With `Cc1ccc(-c2c(C(=O)c3ccc(C(F)(F)F)cc3)c(C3CCCC3)nc3c2[C@@H](O)CC(C)(C)C3)cc1` [Example 51], the melting point was in the range of 153 to 155 °C. Compound `CC1(C)Cc2nc(C3CCCC3)c(C(=O)c3ccc(C(F)(F)F)cc3)c(-c3ccc(Cl)cc3)c2[C@@H](O)C1` [Example 52] yielded a melting point of 168 to 169 °C. In turn, `CC1(C)Cc2nc(C3CCCC3)c([C@@H](F)c3ccc(C(F)(F)F)cc3)c(-c3ccc(Cl)cc3)c2[C@@H](O)C1` [Example 55] came in with a melting point of 138 to 139 °C. Still for that read-out and setting: for `COc1ccc(-c2c(C(=O)c3ccc(C(F)(F)F)cc3)c(C3CCCC3)nc3c2[C@@H](O)CC(C)(C)C3)cc1` [Example 47] the value was 171 to 174 °C. In turn, `CC1(C)Cc2nc(C3CCCC3)c(C(=O)c3ccc(C(F)(F)F)cc3)c(-c3cccc(F)c3)c2[C@@H](O)C1` [Example 49] displayed a melting point of 167 to 168 °C. On to `CC1(C)Cc2nc(C3CCCC3)c(Cc3ccc(C(F)(F)F)cc3)c(-c3ccc(Cl)cc3)c2[C@@H](O)C1` [Example 56], for which the melting point was 136 to 137 °C.

For `Cc1ccc(-c2c(Cc3ccc(C(F)(F)F)cc3)c(C3CCCC3)nc3c2[C@@H](O)CC(C)(C)C3)cc1` [Example 62], the melting point is 106 to 108 °C. The compound `CC1(C)Cc2nc(C3CCCC3)c(C(=O)c3ccc(C(F)(F)F)cc3)c(-c3ccc(F)c(F)c3)c2[C@@H](O)C1` [Example 46] gave a melting point of 166 to 168 °C.

On to `CC1(C)Cc2nc(C3CCCC3)c([C@@H](F)c3ccc(C(F)(F)F)cc3)c(-c3ccc(C(F)(F)F)cc3)c2[C@@H](O)C1` [Example 54], for which the melting point lay within 175 to 176 °C. Consider `CC1(C)Cc2nc(C3CCCC3)c(C(=O)c3ccc(C(F)(F)F)cc3)c(-c3ccc(C(F)(F)F)cc3)c2[C@@H](O)C1` [Example 48], for which the melting point was 157 to 162 °C. In turn, `CC1(C)Cc2nc(C3CCCC3)c([C@@H](F)c3ccc(C(F)(F)F)cc3)c(-c3cccc(F)c3)c2[C@@H](O)C1` [Example 61] gave a melting point of 129 °C. `CCOc1ccc(-c2c([C@@H](F)c3ccc(C(F)(F)F)cc3)c(C3CCCC3)nc3c2[C@@H](O)CC(C)(C)C3)cc1.Cl` gave a melting point of 206 to 207 °C.

In turn, `Cc1ccc(-c2c([C@@H](F)c3ccc(C(F)(F)F)cc3)c(C3CCCC3)nc3c2[C@@H](O)CC(C)(C)C3)cc1` [Example 53] gave a melting point of 156 to 158 °C.
